US20250090545A1, “METHODS AND COMPOSITIONS FOR TREATMENT OF PERIPHERAL NEUROPATHIES” (UNIVERSITY OF MANITOBA, priority 2013, published 2025)

Assays:
[1] = system: STZ-induced diabetic rats; test: Motor and sensory nerve conduction velocity in STZ-induced diabetic rats; format: in vivo, rat; conditions: 5 mg/kg s.c., 8 weeks; p<0.05 vs vehicle-treated diabetic rats
Experimental: The STZ rat is a model of type 1 diabetes. Rats were treated with 5 mg/kg (s.c.) pirenzepine for 8 weeks following the method taught by Calcutt et al. (2003, Therapeutic efficacy of sonic hedgehog protein in experimental diabetic neuropathy. J. Clin. Invest. 111:507-514). Nerve conduction velocities (NCV) were determined following the methods taught by Mizisin et al. (2004, Ciliary Neurotrophic Factor Improves Nerve Conduction and Ameliorates Regeneration Deficits in Diabetic Rats. Diabetes 53:1807-12). […] All data are group mean±SEM (N=5-6 group). Statistical analysis by one-way ANOVA with Dunnett's post-hoc test.

[2] = system: AMP-activated protein kinase (AMPK); test: AMPK phosphorylation (Western blot) in cultured adult sensory neurons; format: cell-based, rat; conditions: 1.0 μM, 15-60 min
Experimental: Subsets of cultured adult sensory neurons derived from age-matched control rats or 3-5 month STZ-induced diabetic rats were treated with a 1.0 μM pirenzepine-HCl dosage. The first subset was processed immediately while the second, third and fourth subsets of the neurons from the control rats and the diabetic rats were processed after 15 min, after 30 min, and after 60 min respectively following treatment with pirenzepine. The cell cultures were lysed and then used to prepare Western blots which were then probed with antibodies against phosphorylated AMPK (P-AMPK), total AMPK (T-AMPK) and total ERK (T-ERK). […] Values are means±SEM, N=3/group. Statistical significance was analyzed using one-way ANOVA with Tukey's post-hoc test.

[3] = system: adult sensory neuron cultures derived from STZ-induced diabetic rats; test: Neurite outgrowth in sensory neuron cultures transduced with dominant negative AMPK mutants; format: cell-based, rat; conditions: 1.0 μM pirenzepine; adenovirus dominant negative AMPK mutants AdDN1/AdDN2
Experimental: Adult sensory neuron cultures derived from STZ-induced diabetic rats were transduced for two days after treatment with 1.0 μM pirenzepine, with two adenovirus over-expressing dominant negative mutants of AMPK, i.e., AMPK subunit α1 and α2 mutants named “AdDN1” and “AdDN2” (the adenovirus over-expressing dominant negative mutants were gifts from Dr. Jason Dyck, University of Alberta) following the procedure taught by Roy Chowdhury et al., (2012).

[4] = system: PGC-1α; test: PGC-1α transcriptional activity, luciferase reporter in adult sensory neurons; format: cell-based, rat; conditions: 1 μM; neurons from STZ-induced diabetic rats
Experimental: PGC-1α transcriptional activity was determined in dissociated adult sensory neurons derived from STZ-induced diabetic rats by transfection for two days with luciferase-based reporter plasmids by following the methods taught in the AMAXA® NUCLEOFECTOR® II Manual (www.amaxa.com; AMAX and NUCLEOFECTOR are registered trademarks of Amaxa GmBH Corp., Koln, Fed. Rep. Germany) and by Saleh et al. (2013, Ciliary neurotrophic factor activates NF-κB to enhance mitochondrial bioenergetics and prevent neuropathy in sensory neurons of streptozotocin-induced diabetic rodents. Neuropharmacology 65:65-75) (the luciferase-based reporter plasmids were a gift from Dr. Michael Czubryt, University of Manitoba).

[5] = system: adult sensory neurons from normal rats; test: Neurite outgrowth of sensory neurons exposed to paclitaxel or oxaliplatin; format: cell-based, rat; conditions: 24 hours, pirenzepine 0.1, 1.0 or 10 μM
Experimental: Adult sensory neurons from normal rats were cultured for 24 hours in the presence of(A) paclitaxel (PX; 0.1 μM or 0.3 μM), or (B) oxaliplatin (OX; 3.0 μM). From time of plating some cultures were treated with 0.1, 1.0 or 10 μM pirenzepine (PZ). Levels of total neurite outgrowth were determined and presented as means±SEM, N=6-8/group. Significant differences were assessed in(A) by t-test, and in(B) by one-way ANOVA with Dunnett's post-hoc test.

[6] = system: paclitaxel-treated Swiss Webster mice; format: in vivo, mouse; conditions: pirenzepine daily s.c. for 4 weeks (10 mg/kg/day, also printed 1 mg/kg/day)
Experimental: Swiss Webster mice were treated with paclitaxel (taxol; 5 mg/kg on days 1,3,5 and 7) to induce peripheral neuropathy. […] Data points are group mean of n=9-12/group±SEM. Significant differences were determined with a oneway ANOVA followed by Dunnett's post-hoc test.

[7] = system: cultured adult rat sensory neurons; format: cell-based; conditions: 1 μM; gp120 24 hours; P<0.05
Experimental: To further extend our investigation of the actions of muscarinic receptor antagonists on nerve growth, cultured adult rat sensory neurons were treated for 24 hours with recombinant gp120, an external coat protein of HIV that causes toxicity to sensory neurons in HIV neuropathy (FIG. 24). This toxicity leads to axon degeneration and neuronal cell death. Cultures were treated with 1 μM pirenzpeine and total neurite outgrowth determined. […] Values are means±SEM. n=6.

[8] = system: DCA-treated Swiss Webster mice; conditions: pirenzepine 10 mg/kg/day s.c.
Experimental: Swiss Webster mice were treated with DCA (1 mg/kg/day s.c.) for 8 weeks to induce peripheral neuropathy following the method described for rats by Calcutt et al. (2009, Peripheral neuropathy in rats exposed to dichloroacetate. J. Neuropath. Exp. Neurol. 68:985-93). Some DCA-treated mice were also treated with pirenzepine (Pz: 10 mg/kg/day s.c.) for the duration of the study while others were treated with vehicle alone.

[9] = system: adult sensory neuron cultures from STZ-induced diabetic rats; test: Mitochondrial respiration (OCR) in adult sensory neuron cultures; format: cell-based, rat; conditions: 1 μM for 3 h
Experimental: Mitochondrial respiration in adult mouse sensory neuron cultures from wild type control mice, M1 receptor knockout mice (M1R KO), and from diabetic mice that received dosing with 1 μM of VU0255035 for 3 h, were assessed following the methods taught by Roy Chowdhury et al. (2012). The M1R knockout mice were a gift from Dr. Jurgen Wess (Molecular Signaling Section, Laboratory of Bioorganic Chemistry, National Institute of Diabetes and Digestive and Kidney Diseases, National Institutes of Health).
This bioenergetics parameter, which is depressed in diabetes, is related to the capacity of cells to conduct respiration under conditions of stress or high ATP demand. In this regard we propose the stress is the presence of high intracellular glucose concentrations.

[10] = target: T1, type 1 muscarinic receptor (M1R) (Homo sapiens, UniProt P11229); conditions: cited from earlier work
T1 sequence (P11229 1-460): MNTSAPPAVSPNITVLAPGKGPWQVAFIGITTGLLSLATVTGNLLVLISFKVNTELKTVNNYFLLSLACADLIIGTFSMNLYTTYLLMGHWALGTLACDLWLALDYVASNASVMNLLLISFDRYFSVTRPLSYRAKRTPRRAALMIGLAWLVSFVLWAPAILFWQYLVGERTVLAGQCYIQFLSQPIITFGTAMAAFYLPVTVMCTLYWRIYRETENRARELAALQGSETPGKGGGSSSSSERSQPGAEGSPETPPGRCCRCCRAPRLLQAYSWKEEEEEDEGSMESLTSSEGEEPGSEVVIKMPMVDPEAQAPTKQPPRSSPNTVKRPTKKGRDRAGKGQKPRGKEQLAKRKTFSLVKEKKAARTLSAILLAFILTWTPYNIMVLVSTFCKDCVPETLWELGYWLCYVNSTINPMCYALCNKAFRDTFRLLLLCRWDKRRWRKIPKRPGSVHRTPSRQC

Row | transcriptional activity of PGC-1α [4] | Compound | motor nerve conduction velocity (MNCV) slowing [1] | sensory nerve conduction velocity (SNCV) slowing [1] | P-AMPK level ([2]; cultures from normal (age-matched control) rats) | P-AMPK level ([2]; cultures from type 1 (STZ) diabetic rats) | pirenzepine-induced neurite outgrowth under blockage of AMPK signaling [3] | reduced neurite outgrowth caused by oxaliplatin ([5]; oxaliplatin 3.0 μM) | reduced neurite outgrowth caused by paclitaxel ([5]; paclitaxel 0.1 or 0.3 μM) | tactile allodynia (paw 50% tactile response threshold) [6] | thermal hyperalgesia (paw thermal response latency) [6] | protection from gp120-induced neurite degeneration [7] | depletion of paw skin IENF ([8]; 8 weeks) | paw thermal hypoalgesia ([8]; 8 weeks) | onset of MNCV slowing ([8]; after 4 weeks of exposure) | coupling efficiency [9] | oxygen consumption rate (OCR) [9] | respiratory control ratio [9] | spare respiratory capacity ([9]; compared to controls) | selectivity to M1R relative to M2, M3, M4 and M5 receptors [10] [times]
1 | enhanced | CN1CCN(CC(=O)N2c3ccccc3C(=O)Nc3cccnc32)CC1 [pirenzepine] | attenuated | attenuated | significantly activated | significantly activated | completely inhibited | prevented | prevented | prevented | prevented | complete protection | prevented | prevented | delayed onset |  |  |  |  | 
2 |  | O=C(CCNS(=O)(=O)c1cccc2nsnc12)N1CCN(c2ccncc2)CC1 [VU0255035] |  |  |  |  |  |  |  |  |  |  |  |  |  | not dissimilar | increased | not dissimilar | significantly increased | 75
